Like-named read-outs stand apart in the source and are kept apart here.
Tested on: genotype 1b (Con-1) HCV replicon
Test: HCV Replicon Luciferase Assay (genotype 1b)
Type: cell-based
Settings: Hepatitis C virus, 72 h, genotype 1b replicon in Huh-7 cells, Renilla luciferase, 3 days incubation
Experimental: The cell lines used to evaluate compounds consist of a human hepatocyte derived cell line (Huh-7) that constitutively expresses a genotype 1b (Con-1) HCV replicon or a genotype 1b (Con-1) HCV replicon with an asparagine replacing the cysteine at amino acid 316, or a genotype 2a (JFH-1) replicon, containing a Renilla luciferase reporter gene. These cells were maintained in Dulbecco's modified Eagle medium (DMEM) containing 10% FBS, 100 U/mL penicillin/streptomycin and 1.0 mg/mL G418.
To evaluate compound efficacy, titrated compounds were transferred to sterile 384-well tissue culture treated plates, and the plates were seeded with HCV replicon cells (50 μL at a density of 2.4×10^3 cells/well) in DMEM containing 4% FBS (final DMSO concentration at 0.5%). After 3 days incubation at 37° C., cells were analyzed for Renilla Luciferase activity using the EnduRen substrate (Promega cat #E6485) according to the manufacturer's directions. Briefly, the EnduRen substrate was diluted in DMEM and then added to the plates to a final concentration of 7.5 μM. The plates were incubated for at least 1 h at 37° C. then read on a Viewlux Imager (PerkinElmer) using a luminescence program. The 50% effective concentration (EC50) was calculated using the four-parameter logistic formula noted above.
Compound EC50 data is expressed as A: <100 nM; B=100-1000 nM; C>1000 nM).

| SMILES | EC50 (read-out: EC50 1b (class)) [µM] | EC50 (read-out: EC50 (uM) 1b) [µM] |
| --- | --- | --- |
| C#CC(C)(C)NC(=O)c1cccc(-c2cc3c(C(=O)NC)c(-c4ccc(F)cc4)oc3nc2NCC(F)(F)C(F)(F)F)c1 [Compound 40005] | 0.1 to 1 |  |
| CNC(=O)c1c(-c2ccc(F)cc2)oc2nc(NCCO)c(-c3cccc(C(=O)NC(CF)(CF)CF)c3)cc12 [Compound 42002] | < 0.1 |  |
| CNC(=O)c1c(-c2ccc(F)cc2)oc2nc(CCC(F)(F)F)c(-c3cccc(C(=O)N[C@@H](C)C4CC4)c3)cc12 [Compound 20011] | < 0.1 |  |
| C#CC(C)(C)NC(=O)c1cc(-c2cc3c(C(=O)NC)c(-c4ccc(F)cc4)oc3nc2NCC(F)(F)C(F)(F)F)ccc1OC [Compound 41004] | < 0.1 | 0.0173 |
| CNC(=O)c1c(-c2ccc(F)cc2)oc2nc(CCC(F)(F)F)c(-c3cccc(C(=O)NC4CCOC4)c3)cc12 (centres unmarked) [Compound 20034] | < 0.1 | 0.0118 |
| CNC(=O)c1c(-c2ccc(F)cc2)oc2nc(Cl)c(-c3cccc(C(=O)NC(CF)(CF)CF)c3)cc12 [Compound 11001] | 0.1 to 1 |  |
| CNC(=O)c1c(-c2ccc(F)cc2)oc2nc(CCC(F)(F)F)c(-c3cccc(C(=O)N[C@@H](CO)C4CC4)c3)cc12 [Compound 20006] | < 0.1 |  |
| CC[C@@H](NC(=O)c1cccc(-c2cc3c(C(=O)NC)c(-c4ccc(F)cc4)oc3nc2CCC(F)(F)F)c1)C1CC1 [Compound 20009] | < 0.1 | 0.01 |
| CNC(=O)c1c(-c2ccc(F)cc2)oc2nc(NCC(F)(F)C(F)(F)F)c(-c3cccc(C(=O)NC(C)(C)C)c3)cc12 [Compound 40002] | < 0.1 |  |
| CNC(=O)c1c(-c2ccc(F)cc2)oc2nc(CCC(F)(F)F)c(-c3ccc(F)c(C(=O)NC(C)(C)C(F)(F)F)c3)cc12 [Compound 22003] | < 0.1 |  |
| CNC(=O)c1c(-c2ccc(F)cc2)oc2nc(CCC(F)(F)F)c(-c3cccc(C(=O)NCC(F)F)c3)cc12 [Compound 20021] | < 0.1 |  |
| CNC(=O)c1c(-c2ccc(F)cc2)oc2nc(NCC(F)(F)F)c(-c3ccc(OC)c(C(=O)NC(CF)(CF)CF)c3)cc12 [Compound 31002] | < 0.1 |  |
| CNC(=O)c1c(-c2ccc(F)cc2)oc2nc(CCC(F)(F)F)c(-c3ccc(OC)c(C(=O)NCC(F)(F)C(F)(F)C(F)(F)F)c3)cc12 [Compound 21002] | < 0.1 |  |
| CNC(=O)c1c(-c2ccc(F)cc2)oc2nc(NCC(F)(F)F)c(-c3cccc(C(=O)N[C@@H](CO)c4ccccc4)c3)cc12 [Compound 30012] | < 0.1 | 0.0239 |
| CC[C@H](NC(=O)c1cccc(-c2cc3c(C(=O)NC)c(-c4ccc(F)cc4)oc3nc2CCC(F)(F)F)c1)C1CC1 [Compound 20010] | < 0.1 |  |
| C#CC(C)(C)NC(=O)c1cc(-c2cc3c(C(=O)NC)c(-c4ccc(F)cc4)oc3nc2Cl)ccc1OC [Compound 10002] | < 0.1 | 0.0362 |
| CNC(=O)c1c(-c2ccc(F)cc2)oc2nc(CCC(F)(F)F)c(-c3cccc(C(=O)NCC(C)(C)C)c3)cc12 [Compound 20030] | < 0.1 |  |
| C#CC(C)(C)NC(=O)c1cccc(-c2cc3c(C(=O)NC)c(-c4ccc(F)cc4)oc3nc2CCC(F)(F)F)c1 [Compound 20003] | < 0.1 | 0.004 |
| CNC(=O)c1c(-c2ccc(F)cc2)oc2nc(NCC(F)(F)F)c(-c3cccc(C(=O)NC4(C(=O)OC)CC4)c3)cc12 [Compound 30008] | < 0.1 |  |
| CNC(=O)c1c(-c2ccc(F)cc2)oc2nc(CCC(F)(F)F)c(-c3cccc(C(=O)NCC4(COC)CC4)c3)cc12 [Compound 20032] | < 0.1 |  |
| CNC(=O)c1c(-c2ccc(F)cc2)oc2nc(CCC(F)(F)F)c(-c3cccc(C(=O)N[C@H](C)C4CC4)c3)cc12 [Compound 20012] | < 0.1 |  |
| CNC(=O)c1c(-c2ccc(F)cc2)oc2nc(Cl)c(-c3ccc(OC)c(C(=O)NC(CF)(CF)CF)c3)cc12 [Compound 10003] | 0.1 to 1 |  |
| CNC(=O)c1c(-c2ccc(F)cc2)oc2nc(CCC(F)(F)F)c(-c3cccc(C(=O)NC(C)(C)C(=O)OC)c3)cc12 [Compound 20023] | < 0.1 |  |
| CNC(=O)c1c(-c2ccc(F)cc2)oc2nc(NCC(F)(F)F)c(-c3cccc(C(=O)NC(C)(C)CO)c3)cc12 [Compound 30010] | < 0.1 |  |
| CNC(=O)c1c(-c2ccc(F)cc2)oc2nc(CCC(F)(F)F)c(-c3cccc(C(=O)NC(C)(C)CF)c3)cc12 [Compound 20025] | < 0.1 |  |
| CNC(=O)c1c(-c2ccc(F)cc2)oc2nc(CCC(F)(F)F)c(-c3cccc(C(=O)NC(C4CC4)C4CC4)c3)cc12 [Compound 20008] | < 0.1 |  |

| SMILES | EC50 (read-out: EC50 1b (class)) [µM] | EC50 (read-out: EC50 (uM) 1b) [µM] |
| --- | --- | --- |
| CNC(=O)c1c(-c2ccc(F)cc2)oc2nc(NCC(F)(F)F)c(-c3cccc(C(=O)NC(C)(C)C(F)(F)F)c3)cc12 [Compound 30006] | < 0.1 | 0.0053 |
| CNC(=O)c1c(-c2ccc(F)cc2)oc2nc(CCC(F)(F)F)c(-c3cccc(C(=O)NC4CCOCC4)c3)cc12 [Compound 20031] | < 0.1 | 0.0136 |
| CNC(=O)c1c(-c2ccc(F)cc2)oc2nc(CCC(F)(F)F)c(-c3cccc(C(=O)NCC(F)(F)F)c3)cc12 [Compound 20019] | < 0.1 |  |
| CNC(=O)c1c(-c2ccc(F)cc2)oc2nc(CCC(F)(F)F)c(-c3cccc(C(=O)NC(C)(C)C(F)(F)F)c3)cc12 [Compound 20001] | < 0.1 | 0.0063 |
| CNC(=O)c1c(-c2ccc(F)cc2)oc2nc(CCC(F)(F)F)c(-c3cccc(C(=O)NCC(C)(F)F)c3)cc12 [Compound 20035] | < 0.1 |  |
| [2H]C([2H])([2H])C(NC(=O)c1cccc(-c2cc3c(C(=O)NC)c(-c4ccc(F)cc4)oc3nc2NCC(F)(F)C(F)(F)F)c1)(C([2H])([2H])[2H])C([2H])([2H])[2H] [Compound 40003] | 0.1 to 1 |  |
| CCC(NC(=O)c1cccc(-c2cc3c(C(=O)NC)c(-c4ccc(F)cc4)oc3nc2NCC(F)(F)F)c1)C(F)(F)F (centres unmarked) [Compound 30005] | < 0.1 |  |
| CNC(=O)c1c(-c2ccc(F)cc2)oc2nc(CCC(F)(F)F)c(-c3cccc(C(=O)N[C@@H](COC)C4CC4)c3)cc12 [Compound 20014] | < 0.1 |  |
| CNC(=O)c1c(-c2ccc(F)cc2)oc2nc(NCC(F)(F)C(F)(F)F)c(-c3cccc(C(=O)NC(CF)(CF)CF)c3)cc12 [Compound 40004] | < 0.1 |  |
| CNC(=O)c1c(-c2ccc(F)cc2)oc2nc(NCC(F)(F)F)c(-c3ccc(OC)c(C(=O)NCC(F)(F)C(F)(F)C(F)(F)F)c3)cc12 [Compound 31001] | < 0.1 | 0.014 |
| CNC(=O)c1c(-c2ccc(F)cc2)oc2nc(CCC(F)(F)F)c(-c3cccc(C(=O)NC(C)(C)C4CC4)c3)cc12 [Compound 20007] | < 0.1 |  |
| CNC(=O)c1c(-c2ccc(F)cc2)oc2nc(CCC(F)(F)F)c(-c3cccc(C(=O)N[C@H](COC)C4CC4)c3)cc12 [Compound 20015] | < 0.1 | 0.0056 |
| CNC(=O)c1c(-c2ccc(F)cc2)oc2nc(NCC(F)(F)C(F)(F)F)c(-c3ccc(OC)c(C(=O)NC(CF)(CF)CF)c3)cc12 [Compound 41003] | < 0.1 | 0.0519 |
| CNC(=O)c1c(-c2ccc(F)cc2)oc2nc(Cl)c(-c3ccc(OC)c(C(=O)NCC(F)(F)C(F)(F)C(F)(F)F)c3)cc12 [Compound 10001] | 0.1 to 1 | 0.149 |
| [2H]C([2H])([2H])C(NC(=O)c1cc(-c2cc3c(C(=O)NC)c(-c4ccc(F)cc4)oc3nc2NCC(F)(F)C(F)(F)F)ccc1OC)(C([2H])([2H])[2H])C([2H])([2H])[2H] [Compound 41005] | < 0.1 |  |
| CNC(=O)c1c(-c2ccc(F)cc2)oc2nc(CCC(F)(F)F)c(-c3cccc(C(=O)NCC(C)(C)COC)c3)cc12 [Compound 20033] | < 0.1 |  |
| CNC(=O)c1c(-c2ccc(F)cc2)oc2nc(NCC(F)(F)F)c(-c3cccc(C(=O)NC(C)(C)C(=O)NC)c3)cc12 [Compound 30013] | < 0.1 |  |
| CNC(=O)c1c(-c2ccc(F)cc2)oc2nc(CCC(F)(F)F)c(-c3ccc(F)c(C(=O)NC(C)C(F)(F)F)c3)cc12 (centres unmarked) [Compound 22001] | < 0.1 | 0.0108 |
| C#CC(C)(C)NC(=O)c1cccc(-c2cc3c(C(=O)NC)c(-c4ccc(F)cc4)oc3nc2NCC(F)(F)F)c1 [Compound 30002] | < 0.1 | 0.0037 |
| CNC(=O)c1c(-c2ccc(F)cc2)oc2nc(NCC(F)(F)F)c(-c3cccc(C(=O)NC(C4CC4)C(F)(F)F)c3)cc12 (centres unmarked) [Compound 30007] | < 0.1 |  |
| CNC(=O)c1c(-c2ccc(F)cc2)oc2nc(NCC(F)(F)F)c(-c3cccc(C(=O)NC(C)(C)C(=O)OC)c3)cc12 [Compound 30009] | < 0.1 |  |
| CNC(=O)c1c(-c2ccc(F)cc2)oc2nc(NCC(F)(F)F)c(-c3cccc(C(=O)NC(C)(C)c4ccccc4)c3)cc12 [Compound 30015] | < 0.1 | 0.0067 |
| CNC(=O)c1c(-c2ccc(F)cc2)oc2nc(NCC(F)(F)F)c(-c3cccc(C(=O)NCC(C)(C)C)c3)cc12 [Compound 30011] | < 0.1 |  |
| CNC(=O)c1c(-c2ccc(F)cc2)oc2nc(CCC(F)(F)F)c(-c3cccc(C(=O)NCC(C)(C)CO)c3)cc12 [Compound 20026] | < 0.1 | 0.0043 |
| CNC(=O)c1c(-c2ccc(F)cc2)oc2nc(NCCO)c(-c3cccc(C(=O)NC(C)(C)C(F)(F)F)c3)cc12 [Compound 42001] | < 0.1 |  |

From patent publication US9957278B2, “Furopyridine compounds for the treatment of hepatitis C” (BRISTOL-MYERS SQUIBB COMPANY, priority 2014, dated 2018)
